Experimental data reported in patent publication US9187397B2 (STC.UNM, priority 2004, dated 2015).
Like-named read-outs stand apart in the source and are kept apart here.

Columns and labels:
[1] = target: glutathione S-transferase P1-1 (Homo sapiens (Human), UniProt P09211); assay: GSTP1-1 enzyme inhibition assay (CDNB/GSH, 340 nm); type: biochemical; conditions: 1 mM CDNB, 1 mM GSH, pH 6.5; compared with curcumin
Protocol: Kinetic analysis assays were conducted. […] GSTP1-1 activity was measured at pH 6.5 in 1 ml volumes of 20 mM potassium phosphate buffer containing 100 mM NaCl, 1 mM CDNB and 1 mM GSH. […] (Perkin/Elmer Lambda 2S spectrophotometer). These activities were plotted as percent of control (GSTP1-1 activity without inhibitors). Kinetic analysis (dissociation constants) of inhibitors was determined by linear regression analysis of the Dixon, plots. […] Ki's were calculated utilizing SigmaPlot's Enzyme Kinetics Module™ (Chicago, Ill., USA). […]
These activities were plotted as percent of control (GSTP1-1 activity without inhibitors).

[2] = Ferric Reducing/Anti-oxidant Power assay (FRAP assay); design: key to FRAP: active as an antioxidant (+); conditions: for FRAP: antioxidant activity
Protocol: Anti-oxidant activity was also measured in the Ferric reducing/anti-oxidant power assay (FRAP assay) in which the analogs are reacted with a ferric tripyridyltriazine complex. For the FRAP assay (Benzie et al., Meth. Enzymol. 1999, 299, 15-27), the ferric complex was prepared at room temperature by reaction of ferric chloride (16.7 mM) and 2,4,6-tripyridyl-s-triazine (8.33 mM) in acetate buffer (0.25 M) to pH 3.6. The FRAP reagent was used immediately after preparation. […] The reaction was mixed by vortexing, allowed to stabilize for 5 min and the absorbance recorded on a Perkin Elmer UV/Vis Lambda 2S. […] The synthetic analog of α-tocopherol (vitamin E), Trolox, was used as a reference standard (10 μM in ethanol).
The second assay used, the FRAP assay, determines the analogs abilities to reduce a Fe(III) tripyridyltriazine complex to a Fe(II) tripyridyltriazine complex. The following FIGS. 3A-3C) show analogs active in the FRAP assay.

[3] = test system: NF-κB; assay: NF-κB luciferase reporter cellular assay (293T/NF-κB-luc, TNFα-stimulated); type: cell-based, human; conditions: for inhibition of the activation of NF-κB by TNFα (screen): 10 μM, compared with curcumin; for IC50: Homo sapiens, HEK-293T, inhibition of TNFα-induced NF-κB activation
Protocol: The cell line is derived from human 293T embryonic kidney cells expressing the large T antigen containing a chromosomal integration of a luciferase reporter construct regulated by 6 copies of the NF-κB response element (Panomics, Inc.). This stable clonal cell line is obtained by co-transfection of pNF-κB-luc and pTK-hyg containing plasmids followed by the addition of hygromycin (200 μg/ml) to maintain cell selection.
The cell line was grown in a humidified atmosphere at 37° C. in 5% CO2/95% air and maintained in Dulbecco's Modified Eagle's Medium (DMEM-high glucose containing 4 mM glutamine) containing fetal bovine serum (FBS, 10%), sodium pyruvate (1 mM), penicillin (100 units/ml), streptomycin (100 μg/ml) and hygromycin (100 μg/m) to maintain cell selection (Gibco/Invitrogen).
The 293T/NF-κB-luc cells were re-plated 24 hr prior to treatment, into 24-well cell culture plates in media without hygromycin, to prevent it from interfering with the assay. The cells were then allowed to grow and attach, to the wells, for 24 hr in a humidified atmosphere at 37° C. in 5% CO2/95% air. […] The cells then were placed again in a humidified atmosphere at 37° C. in 5% CO2/95% air for 7 hr. Plate wells were gently washed with PBS, pH 7.4, and lysed with passive lysis buffer (1×, 100 μl, Promega). The subsequent chemiluminescent lysates were analyzed with the Luciferase Assay System (Promega) utilizing a TD-20/20 luminometer. The relative light units (photons) were determined by the addition of firefly luciferase substrate (75 μl) to cell lysate (10 μl). The light units were then normalized to the amount of protein in the well (mg/ml) with BCA™ Protein Assay Kit (Pierce) and standardized to percent of control (TNFα).
This assay utilized a commercially available cell line (Panomics 293T-luc cellular assay) developed for screening inhibitors of NF-κB. This cell line is stably transfected with a luciferase reporter controlled by an NF-κB dependent promoter. The cell is stimulated with tumor necrosis factor alpha (TNFα) which activates NF-κB. NF-κB then binds to one of six promoter regions on the cell's DNA leading to the production of a luciferase enzyme. Luciferin is added to the cell lysates and the luciferase enzyme catalyzes a cleavage of luciferin leading to the emission of light.
This cell line was developed by Panomics for screening potential inhibitors of NF-κB. Cells are stimulated with TNF-α to express luciferase, whose activity is monitored in a chemiluminometer.
An NF-κB reporter stable cell line from human 293T embryonic kidney cells (293T/NFκB-luc) (Panomics) was grown in a humidified atmosphere at 37° C. in 5% CO2/95% air. The cells were maintained in Dulbecco's Modified Eagle's Medium (DMEM—high glucose containing 4 mM glutamine) supplemented with 10% fetal bovine serum (FBS), 1 mM sodium pyruvate, 100 units/ml penicillin, 100 μg/m streptomycin and 100 μg/ml hygromycin (Gibco/Invitrogen, Carlsbad, Calif.)) to maintain cell selection. One day prior to treatment, the 293T/NFκB-luc cells were plated into 24-well cell culture plates (Costar) at approximately 70% confluency in the above media without hygromycin. The following day cells were fed fresh media 1 hour prior to treatment. […] The cells were placed again in a humidified atmosphere at 37° C. in 5% CO2/95% air for 7 hours. Plate wells were gently washed with phosphate buffered saline, pH 7.4, and lysed with 1× passive lysis buffer (Promega). The subsequent lysates were analyzed with the Luciferase Assay System (Promega) utilizing a TD-20/20 luminometer (Turner Designs). The firefly luciferase relative light units were normalized to protein (mg/ml) with BCATM Protein Assay Kit (Pierce) and standardized to TNF-α control.

[4] = Total Radical-trapping Anti-oxidant Parameter assay (TRAP assay); design: key to TRAP: active as an antioxidant (+); conditions: for TRAP: antioxidant activity
Protocol: This assay is also known as the Total radical-trapping anti-oxidant parameter assay (TRAP assay). For the TRAP assay (Re et al., Free Rad. Biol. […] The turquoise colored reaction was allowed to stabilize for 5 min and the absorbance monitored on a Perkin Elmer UV/Vis Lambda 2S. […] The following FIGS. 2A-2C) show the analogs active in the TRAP assay.

[5] = test system: AP-1; assay: AP-1 luciferase reporter cellular assay (293/AP1-luc, PMA-stimulated); type: cell-based, human; conditions: for activity in the AP-1 cellular assay (screen): 15 μM, compared with curcumin; for IC50: Homo sapiens, inhibition of PMA-induced AP-1 activation, 293/AP1-luc cells, Table 10, read-out: AP-1 IC50
Protocol: This cell line is obtained by co-transfection of pAP1-luc and pTK-hyg containing plasmids followed by the addition of hygromycin (200 μg/ml) to maintain cell selection.
After 24 hr, the cells had reached approximately 60% confluency. […] Plate wells were gently washed with PBS, pH 7.4, and lysed with passive lysis buffer (1×, 100 μl, Promega). The subsequent chemiluminescent lysates were analyzed with the Luciferase Assay System (Promega) utilizing a TD-20/20 luminometer. The relative light units (photons) were determined by the addition of firefly luciferase substrate (75 μl) to cell lysate (10 μl). The light units were then normalized to the amount of protein in the well (mg/ml) with BCA™ Protein Assay Kit (Pierce) and standardized to percent of control (PMA).
This cell line is stably transfected with a luciferase reporter controlled by an AP-1 dependent promoter. The cell is stimulated with phorbol ester which activates AP-1. AP-1 then binds to one of three promoter regions on the cells DNA leading to the production of a luciferase enzyme. Luciferin is added to the cell lysates and the luciferase enzyme catalyzes a cleavage of luciferin leading to the emission of light.

[6] = 293T/NF-κB-luc cells, Table 5, read-out: IC50
[7] = 10 μM in ethanol, compared with curcumin

Sequence of glutathione S-transferase P1-1 (P09211 2-210): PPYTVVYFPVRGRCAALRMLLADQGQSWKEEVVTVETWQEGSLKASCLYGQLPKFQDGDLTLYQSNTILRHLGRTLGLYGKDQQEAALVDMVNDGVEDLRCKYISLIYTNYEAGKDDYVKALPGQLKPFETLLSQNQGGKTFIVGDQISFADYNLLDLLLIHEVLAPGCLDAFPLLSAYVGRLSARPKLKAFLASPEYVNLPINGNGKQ

O=C(/C=C(O)/C=C/c1ccccc1)/C=C/c1ccccc1 [3b]
activity in the GSTP1-1 screening assay [1]: more active than curcumin

COc1ccccc1/C=C/C(=O)/C=C(O)/C=C/c1ccccc1OC [3c]
activity in the GSTP1-1 screening assay [1]: more active than curcumin

COc1cc(/C=C/C(=O)/C(C)=C(O)/C=C/c2ccc(O)c(OC)c2)ccc1O [6a]
FRAP ([2]; 10 μM in ethanol, Table 5): + | FRAP ([2]; Table 10): + | inhibition of the activation of NF-κB by TNFα (screen) [3]: more active than curcumin | IC50 [3, 6]: 6.8 µM | IC50 ([3]; Table 10, read-out: NF-κB IC50): 6.7 µM | TRAP ([4]; 10 μM in ethanol, Table 5): + | TRAP ([4]; Table 10): + | activity in the AP-1 cellular assay (screen) [5]: more active than curcumin | IC50 [5]: 6 µM

CC(C(=O)C=Cc1ccccc1)=C(O)C=Cc1ccccc1 [6b]
activity in the GSTP1-1 screening assay [1]: more active than curcumin

COc1cc(/C=C/C(=O)/C(Cc2ccccc2)=C(O)/C=C/c2ccc(O)c(OC)c2)ccc1O [9a]
FRAP ([2]; 10 μM in ethanol, Table 5): + | FRAP ([2]; Table 10): + | inhibition of the activation of NF-κB by TNFα (screen) [3]: more active than curcumin | IC50 [3, 6]: 7.6 µM | IC50 ([3]; Table 10, read-out: NF-κB IC50): 7.6 µM | TRAP ([4]; 10 μM in ethanol, Table 5): + | TRAP ([4]; Table 10): + | activity in the AP-1 cellular assay (screen) [5]: more active than curcumin | IC50 [5]: 5.3 µM

O=C(/C=C/c1ccccc1)/C(Cc1ccccc1)=C(O)/C=C/c1ccccc1 [9b]
activity in the GSTP1-1 screening assay [1]: more active than curcumin | activity in the AP-1 cellular assay (screen) [5]: active

O=C(/C=C/c1ccccc1)C(Cc1ccccc1)(Cc1ccccc1)C(=O)/C=C/c1ccccc1 [12b]
activity in the GSTP1-1 screening assay [1]: more active than curcumin

Cc1ccc(/C=C/C(=O)/C=C/c2ccc(C)cc2)cc1 [20aa]
activity in the GSTP1-1 screening assay [1]: better inhibitory activity than curcumin

Cc1cccc(/C=C/C(=O)/C=C/c2cccc(C)c2)c1 [20ab]
activity in the GSTP1-1 screening assay [1]: better inhibitory activity than curcumin

O=C(/C=C/c1ccccc1)/C=C/c1ccccc1 [20b]
activity in the GSTP1-1 screening assay [1]: better inhibitory activity than curcumin

O=C(/C=C/c1ccc(O)cc1)/C=C/c1ccc(O)cc1 [20f]
activity in the GSTP1-1 screening assay [1]: better inhibitory activity than curcumin

O=C(/C=C/c1cccc(O)c1)/C=C/c1cccc(O)c1 [20p]
activity in the GSTP1-1 screening assay [1]: better inhibitory activity than curcumin

O=C(/C=C/c1ccc(Cl)cc1)/C=C/c1ccc(Cl)cc1 [20x]
activity in the GSTP1-1 screening assay [1]: better inhibitory activity than curcumin

O=C(/C=C/c1cccc(Cl)c1)/C=C/c1cccc(Cl)c1 [20y]
activity in the GSTP1-1 screening assay [1]: better inhibitory activity than curcumin

O=C(/C=C/c1ccccc1Cl)/C=C/c1ccccc1Cl [20z]
activity in the GSTP1-1 screening assay [1]: better inhibitory activity than curcumin

COc1cc(/C=C/C(=O)c2ccc(O)c(OC)c2)ccc1O [45a]
activity in the FRAP assay [2, 7]: active | inhibition of the activation of NF-κB by TNFα (screen) [3]: more active than curcumin | activity in the TRAP assay [4, 7]: more active than curcumin | activity in the AP-1 cellular assay (screen) [5]: most active

O=C(/C=C/c1ccncc1)/C=C/c1ccncc1 [compound 29]
activity in the GSTP1-1 screening assay [1]: better inhibitory activity than curcumin | inhibition of the activation of NF-κB by TNFα (screen) [3]: more active than curcumin | activity in the AP-1 cellular assay (screen) [5]: more active than curcumin | IC50 [5]: 8.2 µM

O=C(/C=C/c1cccnc1)/C=C/c1cccnc1 [compound 31]
activity in the GSTP1-1 screening assay [1]: better inhibitory activity than curcumin | inhibition of the activation of NF-κB by TNFα (screen) [3]: more active than curcumin | IC50 [3, 6]: 3.4 µM | IC50 ([3]; Table 10, read-out: NF-κB IC50): 3.4 µM | activity in the AP-1 cellular assay (screen) [5]: more active than curcumin | IC50 [5]: 4.1 µM
